Data taken from a melting point compilation (Tetko et al.).

| melting point [°C] | SMILES |
| --- | --- |
| 202 to 204 | Cc1ccc(-c2ccncc2)cc1N |
| 58 to 60 | COC(C)C(N)=S (stereo not drawn) |
| 176 to 178 | Cc1cc(C(=O)O)cc(S(=O)(=O)N2CCC(C)CC2)c1C |
| 148 to 150 | CCC(C)n1ncc2c(C(=O)O)cc(C)nc21 (stereo not drawn) |
| 115 to 117 | NC(=O)C(O)C1CC1 (stereo not drawn) |
| 91 to 93 | Nc1cc(F)cc(N2CCOCC2)c1 |
| 128 to 146 | Fc1cccc(-n2nnnc2S)c1 |
| 232 to 234 | CCc1nc2ccccc2n1CC(=O)O |
| 190 to 192 | O=C(O)c1oc2ccccc2c1COc1ccccc1Cl |
| 182 to 184 | O=C(O)c1cc(-c2ccccc2F)on1 |
| 119 to 121 | Nc1cc(N2CCOC2=O)ccc1F |
| 96 to 98 | Nc1cccc(N2CCN(CCc3ccccc3)CC2)c1 |
| 219 to 221 | O=C(O)c1sccc1S(=O)(=O)N1CCC(O)CC1 |
| 111 to 113 | CCOC(=O)c1nn(-c2ccccc2)cc1/C=N/O |
| 208 to 210 | Cc1nc(NC2CC2)sc1C(=O)O |
| 142 to 144 | C=CC(=O)Nc1cc(Cl)c(OC)cc1OC |
| 51 to 53 | CC(C)(C)OC(=O)N1CCC(NCC(F)(F)F)CC1 |
| 78 to 80 | CSc1ccncc1N |
| 145 to 147 | CC(C)(C)OC(=O)N1CC(O)CC1C(=O)O (stereo not drawn) |
| 140 to 142 | Cc1nn(Cc2ccc(F)cc2)c2[nH]nc(N)c12 |
| 284 to 286 | Cc1nnc(-c2ccc(C(=O)O)cc2)o1 |
| 115 to 117 | CCn1c(CCl)nc2c(F)cccc21 |
| 73 to 75 | CN(C)Cc1c(O)ccc2ccccc12 |

| melting point [°C] | SMILES |
| --- | --- |
| 185 to 187 | O=C(O)CCN1C(=O)C2C3CCC(O3)C2C1=O (stereo not drawn) |
| 87 to 89 | NC(Cn1cncn1)c1ccccc1 (stereo not drawn) |
| 104 to 106 | O=C(O)c1cccc(OCC(F)(F)F)c1 |
| 87 to 89 | CN(C)C(=O)c1cccc(C#N)c1 |
| 56 to 58 | O=S1(=O)CCC(CCBr)C1 (stereo not drawn) |
| 116 to 118 | COc1cc(CC#N)cc(Br)c1OCC(F)(F)F |
| 34 to 36 | Cn1ccnc1C(=O)c1ccco1 |
| 102 to 104 | CCNc1nc(C)c(C(=O)OCC)s1 |
| 62 to 64 | O=C1CCS(=O)CC1 |
| 256 to 258 | Nc1nnc(-c2cccc([N+](=O)[O-])c2)o1 |
| 121 to 123 | Nc1nc2ccccc2n1-c1ccccc1F |
| 122 to 124 | CC1CN(c2ccc(N)cc2C(F)(F)F)CC(C)O1 (stereo not drawn) |
| 64 to 66 | Ic1ccc(OCCc2ccccc2)cc1 |
| 159 to 161 | CCn1c(NN)nc2ccccc2c1=O |
| 158 to 160 | O=C(O)c1cc([N+](=O)[O-])c(F)cc1I |
| 111 to 113 | O=C1CN(CCOc2ccc(Br)cc2)CCN1 |
| 123 to 125 | CC(Cl)C(=O)Nc1cc(Cl)ccc1Cl (stereo not drawn) |
| 204 to 206 | NC(=O)C1CCC(O)CC1 (stereo not drawn) |
| 137 to 139 | CC(C)CNC(=O)c1cc(Cl)ccc1N |
| 105 to 107 | O=C(Cc1ccc(Cl)cc1)N1CCNCC1 |
| 129 to 131 | Nc1ccc2[nH]c(C(F)F)nc2c1 |
| 159 to 161 | CN(CCCC(=O)O)C1=NS(=O)(=O)c2ccccc21 |
| 59 to 61 | COc1ccc2oc(C=O)cc2c1 |

| melting point [°C] | SMILES |
| --- | --- |
| 148 to 150 | Fc1ccc(-c2csc3nc(Cc4ccc(Cl)cc4)nc(Cl)c23)cc1 |
| 78 to 80 | CC(C)(C(=O)O)c1cccs1 |
| 73 to 75 | COc1ccccc1Nc1ccc(N)cc1 |
| 103 to 105 | O=C(O)c1cnns1 |
| 126 to 128 | Cc1ccc(C2OCCCC2C(=O)O)cc1 (stereo not drawn) |
| 155 to 157 | O=Cc1cc(Cl)cc2cccnc12 |
| 132 to 134 | CC(C(O)c1ccccc1)N(C)S(=O)(=O)c1ccc([N+](=O)[O-])cc1 (stereo not drawn) |
| 115 to 117 | CC(=O)c1ccc(C(F)(F)C(=O)O)n1C |
| 111 to 113 | Cc1ccc(C2CS(=O)(=O)CCN2)o1 (stereo not drawn) |
| 150 to 152 | CN(C)S(=O)(=O)c1ccc(N)nc1 |
| 249 to 251 | CNC(=O)CS(=O)(=O)c1ccc(C(=O)O)cc1 |
| 117 to 119 | CC=Cc1ccc(OCC(=O)O)c(OC)c1 |
| 179 to 181 | NNc1ccc(S(=O)(=O)N2CCOCC2)cn1 |
| 130 to 132 | CN(C)S(=O)(=O)CC(=O)O |
| 215 to 217 | Nc1ccc2c(c1)NC(=O)CO2 |
| 99 to 101 | O=S(=O)(CCN1CCNCC1)c1ccc(Br)cc1 |
| 182 to 184 | CCCOc1ccc(C(=O)O)cc1OC |
| 260 to 262 | Nc1nnc(-c2ccccn2)s1 |
| 108 to 110 | COC(=O)c1cc2cc(CBr)ccc2o1 |
| 141 to 143 | CCOC(=O)c1c(Cl)c2ncc(S(=O)(=O)Cl)cc2n1C |
| 235 to 237 | Nc1nncc(-c2ccccc2)n1 |
| 220 to 222 | O=C(O)Cn1nnc(-c2cccs2)n1 |

The next lines start with the compound.

| SMILES | melting point [°C] |
| --- | --- |
| COc1ccc(CCC(=O)O)cc1O | 149 to 151 |
| Cc1ccc(S(=O)(=O)Nc2ccc(C(=O)O)cc2)cc1C | 219 to 221 |
| Nc1ccccc1-n1cnnn1 | 84 to 86 |
| CN(C)c1ccc([N+](=O)[O-])cc1C(=O)O | 149 to 151 |
| Nc1ccc2nc[nH]c(=O)c2c1 | 309 to 311 |
| Cc1ccc2[nH]c(C(=O)O)cc2c1C | 243 to 245 |
| COc1ccc(S(=O)(=O)Cl)cc1[N+](=O)[O-] | 58 to 60 |
| O=C(O)CCCOc1ccc(F)cc1F | 74 to 76 |
| CCn1c(N)c(-c2csc(C)n2)c(=O)[nH]c1=O | 250 to 252 |
| Cc1cccc(-c2nc(C(=O)O)c(C)[nH]2)c1 | 149 to 151 |
| O=C(O)c1ccc(F)c(S(=O)(=O)N2CCOCC2)c1 | 175 to 178 |
| CC(=O)NCc1cccc(C(=O)O)c1 | 166 to 168 |
| O=C1CC2CCCC(C1)N2Cc1cccs1 | 88 to 90 |
| O=C(CCl)c1c(-c2ccc(F)cc2)[nH]c2ccccc12 | 158 to 160 |
| N#CC1(NC(=O)c2ccccc2)CCC1 | 126 to 128 |
| Cc1ccc2ncc(C#N)n2c1 | 126 to 128 |
| Cc1noc2ncc(N)cc12 | 179 to 181 |
| CCc1cccc(N2CC(C(=O)O)CC2=O)c1 (stereo not drawn) | 120 to 122 |
| O=Cc1cn(-c2ccc(F)c(Cl)c2)nn1 | 148 to 150 |
| Nc1ccc(Cl)c(C(=O)NCc2cccs2)c1 | 69 to 71 |
| COc1ccc(NS(=O)(=O)c2cc(C(=O)O)ccc2F)cc1 | 209 to 211 |
| CC(C)C(=O)Nc1cccc(O)c1 | 179 to 181 |
| Cc1ccc(S(=O)(=O)NCCN)s1 | 94 to 96 |
| Cc1cc(C)nc(SCC(=O)O)n1 | 130 to 132 |
| CCc1cc(O)nc(CCl)n1 | 125 to 127 |

| SMILES | melting point [°C] |
| --- | --- |
| O=[N+]([O-])c1ccc(F)cc1NC1CC1 | 69 to 71 |
| CC(=O)Nc1cc(Cl)ccc1N | 137 to 139 |
| O=S(=O)(c1ccc2c(c1)CCCN2)N1CCCCC1 | 121 to 123 |
| CC(=O)Nc1ccc(OC2CCCCC2O)cc1 (stereo not drawn) | 139 to 141 |
| COc1cc(N)c(C(=O)O)cc1OC(F)F | 168 to 170 |
| CC(=O)c1ccc(CNC(=O)OC(C)(C)C)nc1C | 72 to 74 |
| O=C(CO)N1CCOCC1 | 77 to 79 |
| COC(=O)c1ccc(S(N)(=O)=O)cc1Cl | 124 to 126 |
| COc1ccc(C(N)=NO)cn1 | 162 to 164 |
| CC(=O)Nc1ccc(C)c(S(=O)(=O)Cl)c1 | 95 to 97 |
| Nc1c(Cl)ncnc1N1CCCC1 | 103 to 105 |
| CC(C)(C)OC(=O)N1CCC(OCC(=O)O)CC1 | 102 to 104 |
| O=C(O)C1CCC(=O)N(Cc2ccccc2)C1c1ccccc1 (stereo not drawn) | 164 to 166 |
| CC(CC(=O)O)C(=O)c1cccc(F)c1 (stereo not drawn) | 59 to 61 |
| Cn1ccc(C(=O)O)cc1=O | 219 to 221 |
| O=Cc1cc(-c2ccccc2)ccc1O | 99 to 101 |
| O=Cc1cc(F)cc2cccnc12 | 114 to 116 |
| Fc1ccc(-c2csc3ncnc(S)c23)cc1 | 244 to 246 |
| N#Cc1cnc2ccccn12 | 154 to 156 |
| CCOC(=O)Cn1nc(C)c(C=O)c1C | 79 to 81 |
| Nc1ccc(N2CCCCC2)c2ccncc12 | 149 to 151 |
| NC(=O)Nc1ccc(Br)cc1C(=O)O | 171 to 173 |
| Cc1cc(=O)[nH]c(-c2ccncc2)n1 | 241 to 243 |
| COc1ccccc1NC(=O)Nc1cc(N)ccc1OC | 167 to 169 |
| CCN(CC)S(=O)(=O)c1ccc(-c2ccc(C=O)o2)cc1 | 119 to 121 |

| SMILES | melting point [°C] |
| --- | --- |
| O=C(O)CCc1ccsc1 | 54 to 58 |
| COc1cc(Br)cc(OC)c1O | 99 to 101 |
| CN(C)c1ccc(N)c2cnccc12 | 107 to 109 |
| COc1ccc(Nc2nc(C(=O)O)cs2)cc1 | 239 to 241 |
| COc1cc(C=C2CCCc3c2nc2ccccc2c3C(=O)O)cc(OC)c1OC | 249 to 251 |
| Nc1ccc(-c2cc3ccccc3o2)cc1 | 281 to 283 |
| CSc1nn(C)c2nc[nH]c(=O)c12 | 251 to 253 |
| CC(C)c1ccc(NC(=S)NN)cc1 | 179 to 181 |
| COc1ccc(Oc2ccc(CO)cc2)cc1 | 100 to 102 |
| Nc1ccnc(OC2CCCCC2)c1 | 114 to 116 |
| NNC(=O)Cc1csc(N2CCOCC2)n1 | 168 to 170 |
| CC(=CC(=O)O)c1ccccc1 | 93 to 95 |
| CC(C)(C)c1cc(C(=O)O)[nH]n1 | 195 to 197 |
| O=C1NC2(CCCC2)C(=O)N1Cc1ccc(Cl)nc1 | 169 to 171 |
| O=C(O)C1CSCN1C(=O)c1c[nH]c2ccccc12 (stereo not drawn) | 159 to 161 |
| COc1ccccc1-c1nnc(N)o1 | 175 to 177 |
| NC(=O)c1ccc(CCl)cc1 | 178 to 180 |
| CN(C(=O)c1ccco1)c1ccccc1C(=O)O | 189 to 191 |
| O=S(=O)(NC1CCNCC1)c1ccc(Cl)cc1 | 189 to 191 |
| Nc1ccc(F)c(F)c1N | 114 to 117 |
| Cc1cc(C(=O)CCl)c(C)n1-c1cc(Cl)cc(Cl)c1 | 113 to 115 |
| CCOC(=O)N1CCC(NC(N)=O)CC1 | 203 to 205 |
| N#Cc1cc(-c2ccccc2)c(-c2ccccc2)nc1Cl | 129 to 131 |
| CCCNc1c(N)n(Cc2ccccc2)c(=O)[nH]c1=O | 210 to 212 |
| NNc1cncc(Cl)n1 | 137 to 139 |
